# Literature values as cited in patent US6346270B1, “Phenytoin therapy” (Alza Corporation, priority 1997, dated 2002).
smiles,measurement,value
O=C1NC(=O)C(c2ccccc2)(c2ccccc2)N1 [phenytoin],solubility in aqueous fluids,poorly soluble
